# According to US10457691B2, “Macrocyclic kinase inhibitors and uses thereof” (Dana-Farber Cancer Institute, Inc., priority 2014, dated 2019):
# Columns and labels:
# Type in all cases: biochemical
# Src = Src (Homo sapiens, UniProt P12931); experiment: Protein kinase assay ([γ-32P] ATP), Src; settings: read-out: Activity of the protein kinase when treated with compound I-1 (% control)
# Procedure: (§1) In another set of experiments, the activities of the compounds described herein against various protein kinases were determined according to the methods reported in Hastie et al., Nature Protocols, 2006, 1, 968-971.
# (§2) Enzyme dilution buffer. This buffer consisted of 50 mM Tris-HCl, pH 7.5, 0.1 mM EGTA, 1 mg ml^−1 bovine serum albumin and 0.1% (vol/vol) 2-mercaptoethanol.
# (§3) 10× concentrated assay buffer. An assay buffer of 500 mM Tris-HCl, pH 7.5, 1 mM EGTA, and 100 mM magnesium acetate was used for assay of a wide variety of protein kinases. In some experiments, other cofactors were included (e.g., calcium ions and calmodulin were included for assay of calcium-calmodulindependent protein kinases).
# (§4) 1 mM [γ-^32P] ATP. The specific activity of the [γ-^32P] ATP solution was 1×10^5 to 1×10^6 c.p.m. per nmol depending on what was needed to produce an optimal signal/noise ratio. […] To measure the concentration of ATP, a sample of such a stock solution was diluted to 20 μM, and the absorbance of the diluted sample was measured at 259 nm. The absorbance of a 20-μM stock solution of ATP at 259 nm was about 0.31. […] ATP to produce a radioactivity of 1×10^5 to 1×10^6 c.p.m. per nmol. […]
# (§5) 13) Measure radioactivity in the samples by Cerenkov counting (e.g., without liquid scintillation fluid) in a liquid scintillation counter using a “^32P program”. […]
# ERK2 = ERK2 (Homo sapiens, UniProt P28482); experiment: Protein kinase assay ([γ-32P] ATP), ERK2; settings: read-out: Activity of the protein kinase when treated with compound I-1 (% control)
# Procedure: as §1, §2, §3, §4, §5
# RIPK2 = RIPK2 (Homo sapiens, UniProt O43353); experiment: Protein kinase assay ([γ-32P] ATP), RIPK2; settings: read-out: Activity of the protein kinase when treated with compound I-1 (% control)
# Procedure: as §1, §2, §3, §4, §5
# RSK1 = RSK1 (Homo sapiens, UniProt Q15418); experiment: Protein kinase assay ([γ-32P] ATP), RSK1; settings: read-out: Activity of the protein kinase when treated with compound I-1 (% control)
# Procedure: as §1, §2, §3, §4, §5
# TTBK1 = TTBK1 (Homo sapiens, UniProt Q5TCY1); experiment: Protein kinase assay ([γ-32P] ATP), TTBK1; settings: read-out: Activity of the protein kinase when treated with compound I-1 (% control)
# Procedure: as §1, §2, §3, §4, §5
# Aurora B = Aurora B (Homo sapiens, UniProt Q96GD4); experiment: Protein kinase assay ([γ-32P] ATP), Aurora B; settings: read-out: Activity of the protein kinase when treated with compound I-1 (% control)
# Procedure: as §1, §2, §3, §4, §5
# DAPK1 = DAPK1 (Homo sapiens, UniProt P53355); experiment: Protein kinase assay ([γ-32P] ATP), DAPK1; settings: read-out: Activity of the protein kinase when treated with compound I-1 (% control)
# Procedure: as §1, §2, §3, §4, §5
# TTK = TTK (Homo sapiens, UniProt P33981); experiment: Protein kinase assay ([γ-32P] ATP), TTK; settings: read-out: Activity of the protein kinase when treated with compound I-1 (% control)
# Procedure: as §1, §2, §3, §4, §5
# MAPKAP-K3 = MAPKAP-K3 (Homo sapiens, UniProt Q16644); experiment: Protein kinase assay ([γ-32P] ATP), MAPKAP-K3; settings: read-out: Activity of the protein kinase when treated with compound I-1 (% control)
# Procedure: as §1, §2, §3, §4, §5
# MSK1 = MSK1 (Homo sapiens, UniProt O75582); experiment: Protein kinase assay ([γ-32P] ATP), MSK1; settings: read-out: Activity of the protein kinase when treated with compound I-1 (% control)
# Procedure: as §1, §2, §3, §4, §5
# BRSK2 = BRSK2 (Homo sapiens, UniProt Q8IWQ3); experiment: Protein kinase assay ([γ-32P] ATP), BRSK2; settings: read-out: Activity of the protein kinase when treated with compound I-1 (% control)
# Procedure: as §1, §2, §3, §4, §5
# WNK1 = WNK1 (Homo sapiens, UniProt Q9H4A3); experiment: Protein kinase assay ([γ-32P] ATP), WNK1; settings: read-out: Activity of the protein kinase when treated with compound I-1 (% control)
# Procedure: as §1, §2, §3, §4, §5
# CK2 = experiment: Protein kinase assay ([γ-32P] ATP), CK2
# Procedure: as §1, §2, §3, §4, §5
# EPH-B1 = EPH-B1 (Homo sapiens, UniProt P54762); experiment: Protein kinase assay ([γ-32P] ATP), EPH-B1; settings: read-out: Activity of the protein kinase when treated with compound I-1 (% control)
# Procedure: as §1, §2, §3, §4, §5
# ROCK 2 = experiment: Protein kinase assay ([γ-32P] ATP), ROCK 2
# Procedure: as §1, §2, §3, §4, §5
# NUAK1 = NUAK1 (Homo sapiens, UniProt O60285); experiment: Protein kinase assay ([γ-32P] ATP), NUAK1; settings: read-out: Activity of the protein kinase when treated with compound I-1 (% control)
# Procedure: as §1, §2, §3, §4, §5
# PIM1 = PIM1 (Homo sapiens, UniProt P11309); experiment: Protein kinase assay ([γ-32P] ATP), PIM1; settings: read-out: Activity of the protein kinase when treated with compound I-1 (% control)
# Procedure: as §1, §2, §3, §4, §5
# [1] = 0.1 μM of compound I-1, DMSO control = 100%
# [2] = 1 μM of compound I-1, DMSO control = 100%
# DAPK1, sequence (P53355 whole entry): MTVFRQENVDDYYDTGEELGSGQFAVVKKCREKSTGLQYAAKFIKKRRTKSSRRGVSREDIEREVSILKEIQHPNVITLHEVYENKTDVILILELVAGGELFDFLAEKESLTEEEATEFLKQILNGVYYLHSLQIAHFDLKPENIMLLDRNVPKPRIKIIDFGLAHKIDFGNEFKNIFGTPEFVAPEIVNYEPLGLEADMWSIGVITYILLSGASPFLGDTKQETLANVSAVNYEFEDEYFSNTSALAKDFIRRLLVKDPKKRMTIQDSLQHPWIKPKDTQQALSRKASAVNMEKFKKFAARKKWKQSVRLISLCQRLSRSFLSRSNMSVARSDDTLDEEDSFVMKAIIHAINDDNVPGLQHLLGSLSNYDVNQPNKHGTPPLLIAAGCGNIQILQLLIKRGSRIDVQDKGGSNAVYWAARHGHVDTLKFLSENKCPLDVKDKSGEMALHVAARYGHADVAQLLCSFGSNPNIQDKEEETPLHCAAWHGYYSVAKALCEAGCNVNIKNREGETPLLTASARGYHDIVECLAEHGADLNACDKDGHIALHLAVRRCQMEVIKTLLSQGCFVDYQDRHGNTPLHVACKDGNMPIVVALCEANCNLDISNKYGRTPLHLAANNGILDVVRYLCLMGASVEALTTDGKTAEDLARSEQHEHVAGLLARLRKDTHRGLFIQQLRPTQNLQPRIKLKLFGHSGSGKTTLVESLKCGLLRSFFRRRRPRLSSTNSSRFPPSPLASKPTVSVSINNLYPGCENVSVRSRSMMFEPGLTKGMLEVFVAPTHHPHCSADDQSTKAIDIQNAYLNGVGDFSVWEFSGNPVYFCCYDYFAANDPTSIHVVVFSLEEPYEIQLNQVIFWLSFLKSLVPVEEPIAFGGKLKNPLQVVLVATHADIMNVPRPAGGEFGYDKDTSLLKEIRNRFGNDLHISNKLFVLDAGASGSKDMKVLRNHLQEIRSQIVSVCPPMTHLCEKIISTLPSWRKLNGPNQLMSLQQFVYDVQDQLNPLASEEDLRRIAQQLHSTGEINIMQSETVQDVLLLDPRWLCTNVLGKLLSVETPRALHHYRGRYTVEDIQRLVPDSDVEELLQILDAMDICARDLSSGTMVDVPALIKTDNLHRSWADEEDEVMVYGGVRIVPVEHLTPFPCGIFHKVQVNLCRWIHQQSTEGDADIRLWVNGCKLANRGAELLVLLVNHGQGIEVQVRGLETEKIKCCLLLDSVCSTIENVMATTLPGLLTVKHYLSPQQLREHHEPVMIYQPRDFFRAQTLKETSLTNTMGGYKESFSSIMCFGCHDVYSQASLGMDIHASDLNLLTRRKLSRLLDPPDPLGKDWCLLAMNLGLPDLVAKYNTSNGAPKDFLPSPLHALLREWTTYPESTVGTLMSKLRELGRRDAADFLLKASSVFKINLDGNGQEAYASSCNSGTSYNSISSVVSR
# TTK, sequence (P33981 whole entry, species assumed): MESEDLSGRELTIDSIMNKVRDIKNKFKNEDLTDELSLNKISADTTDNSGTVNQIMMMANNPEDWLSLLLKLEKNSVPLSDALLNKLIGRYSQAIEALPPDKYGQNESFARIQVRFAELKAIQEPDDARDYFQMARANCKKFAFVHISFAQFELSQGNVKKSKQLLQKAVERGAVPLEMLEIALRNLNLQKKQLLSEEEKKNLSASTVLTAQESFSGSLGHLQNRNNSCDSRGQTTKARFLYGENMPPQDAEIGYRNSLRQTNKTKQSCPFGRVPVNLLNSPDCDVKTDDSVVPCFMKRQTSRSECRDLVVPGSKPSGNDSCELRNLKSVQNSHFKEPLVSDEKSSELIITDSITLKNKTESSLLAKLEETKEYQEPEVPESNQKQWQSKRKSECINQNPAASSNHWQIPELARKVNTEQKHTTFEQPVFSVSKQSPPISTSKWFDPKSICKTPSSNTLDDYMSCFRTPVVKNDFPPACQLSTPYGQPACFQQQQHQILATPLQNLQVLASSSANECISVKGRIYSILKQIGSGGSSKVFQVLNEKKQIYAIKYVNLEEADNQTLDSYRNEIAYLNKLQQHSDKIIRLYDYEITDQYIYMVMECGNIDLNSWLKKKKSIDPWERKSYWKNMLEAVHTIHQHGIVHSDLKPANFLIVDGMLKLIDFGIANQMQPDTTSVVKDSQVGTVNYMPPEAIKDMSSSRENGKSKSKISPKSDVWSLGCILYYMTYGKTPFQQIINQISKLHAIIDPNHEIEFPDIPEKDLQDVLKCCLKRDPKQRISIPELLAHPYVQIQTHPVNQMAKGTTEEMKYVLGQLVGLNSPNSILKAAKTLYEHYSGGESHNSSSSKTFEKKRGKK
# RSK1, sequence (Q15418 whole entry, species assumed): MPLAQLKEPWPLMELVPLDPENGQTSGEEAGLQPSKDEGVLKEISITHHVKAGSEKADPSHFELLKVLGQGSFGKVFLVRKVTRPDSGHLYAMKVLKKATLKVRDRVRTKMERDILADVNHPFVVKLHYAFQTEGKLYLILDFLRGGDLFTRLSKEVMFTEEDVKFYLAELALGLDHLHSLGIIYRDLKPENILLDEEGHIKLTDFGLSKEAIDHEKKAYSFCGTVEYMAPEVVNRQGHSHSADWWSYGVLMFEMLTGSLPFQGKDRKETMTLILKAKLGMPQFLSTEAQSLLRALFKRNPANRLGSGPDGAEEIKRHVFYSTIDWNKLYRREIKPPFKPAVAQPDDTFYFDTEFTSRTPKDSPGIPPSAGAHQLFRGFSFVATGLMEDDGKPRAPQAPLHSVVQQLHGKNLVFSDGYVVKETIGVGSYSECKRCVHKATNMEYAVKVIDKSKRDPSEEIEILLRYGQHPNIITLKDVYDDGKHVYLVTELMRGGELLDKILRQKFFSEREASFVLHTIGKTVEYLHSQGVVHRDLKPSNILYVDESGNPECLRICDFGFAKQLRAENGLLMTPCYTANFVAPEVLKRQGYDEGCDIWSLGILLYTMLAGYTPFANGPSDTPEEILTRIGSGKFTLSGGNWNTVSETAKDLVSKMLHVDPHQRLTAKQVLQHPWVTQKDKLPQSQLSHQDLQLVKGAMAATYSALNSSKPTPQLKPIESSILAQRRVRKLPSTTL
# BRSK2, sequence (Q8IWQ3 whole entry): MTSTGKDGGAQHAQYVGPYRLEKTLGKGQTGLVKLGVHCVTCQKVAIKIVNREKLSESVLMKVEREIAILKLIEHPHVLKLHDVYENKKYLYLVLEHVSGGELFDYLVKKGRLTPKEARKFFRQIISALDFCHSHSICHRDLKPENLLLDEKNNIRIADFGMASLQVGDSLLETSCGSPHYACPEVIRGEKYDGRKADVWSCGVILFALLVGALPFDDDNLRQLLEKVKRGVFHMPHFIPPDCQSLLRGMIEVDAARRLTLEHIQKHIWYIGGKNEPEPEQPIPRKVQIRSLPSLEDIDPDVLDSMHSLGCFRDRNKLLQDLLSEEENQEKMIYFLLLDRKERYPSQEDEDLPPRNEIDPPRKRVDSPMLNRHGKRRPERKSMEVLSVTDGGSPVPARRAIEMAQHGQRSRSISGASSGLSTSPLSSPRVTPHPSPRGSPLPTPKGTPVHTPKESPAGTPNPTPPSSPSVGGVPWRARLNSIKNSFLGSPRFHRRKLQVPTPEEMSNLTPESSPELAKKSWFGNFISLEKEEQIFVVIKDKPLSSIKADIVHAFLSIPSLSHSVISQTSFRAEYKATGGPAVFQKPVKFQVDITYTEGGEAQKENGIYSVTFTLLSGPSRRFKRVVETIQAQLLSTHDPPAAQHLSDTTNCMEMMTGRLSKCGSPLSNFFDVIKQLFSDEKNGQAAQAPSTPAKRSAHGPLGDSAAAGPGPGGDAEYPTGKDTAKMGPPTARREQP
# Src, sequence (P12931 whole entry, species assumed): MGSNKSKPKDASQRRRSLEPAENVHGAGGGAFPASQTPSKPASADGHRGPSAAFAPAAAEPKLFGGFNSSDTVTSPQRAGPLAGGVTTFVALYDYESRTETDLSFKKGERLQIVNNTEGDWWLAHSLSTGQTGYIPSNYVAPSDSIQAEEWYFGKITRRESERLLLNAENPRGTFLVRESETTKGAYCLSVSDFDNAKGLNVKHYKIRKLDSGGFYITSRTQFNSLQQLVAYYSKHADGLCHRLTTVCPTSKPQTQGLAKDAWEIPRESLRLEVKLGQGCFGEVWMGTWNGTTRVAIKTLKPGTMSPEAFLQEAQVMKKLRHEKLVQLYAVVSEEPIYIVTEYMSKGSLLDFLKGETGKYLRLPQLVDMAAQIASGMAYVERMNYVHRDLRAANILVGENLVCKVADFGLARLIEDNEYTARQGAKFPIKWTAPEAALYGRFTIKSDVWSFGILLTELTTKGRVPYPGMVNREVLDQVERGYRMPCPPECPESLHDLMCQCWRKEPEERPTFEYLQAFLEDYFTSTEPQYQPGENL
# MAPKAP-K3, sequence (Q16644 whole entry): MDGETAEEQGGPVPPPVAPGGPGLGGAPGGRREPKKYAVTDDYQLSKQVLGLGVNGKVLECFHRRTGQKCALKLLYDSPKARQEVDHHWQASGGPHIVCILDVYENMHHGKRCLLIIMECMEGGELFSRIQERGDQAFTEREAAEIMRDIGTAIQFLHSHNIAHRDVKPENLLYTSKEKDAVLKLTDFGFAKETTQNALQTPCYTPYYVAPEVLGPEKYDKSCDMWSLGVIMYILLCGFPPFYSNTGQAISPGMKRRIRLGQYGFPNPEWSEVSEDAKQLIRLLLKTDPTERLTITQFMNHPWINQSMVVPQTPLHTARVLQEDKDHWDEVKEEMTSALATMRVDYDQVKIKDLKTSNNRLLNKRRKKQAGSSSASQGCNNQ
# Aurora B, sequence (Q96GD4 whole entry): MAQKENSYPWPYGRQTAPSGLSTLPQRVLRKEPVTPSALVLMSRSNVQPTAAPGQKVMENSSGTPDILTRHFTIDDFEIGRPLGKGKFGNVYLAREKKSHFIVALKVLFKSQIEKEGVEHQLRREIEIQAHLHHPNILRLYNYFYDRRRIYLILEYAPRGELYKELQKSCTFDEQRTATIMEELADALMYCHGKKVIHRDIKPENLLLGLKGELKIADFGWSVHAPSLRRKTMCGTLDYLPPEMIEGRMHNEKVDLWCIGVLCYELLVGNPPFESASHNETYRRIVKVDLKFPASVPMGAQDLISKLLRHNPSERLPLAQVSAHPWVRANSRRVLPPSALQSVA
structure (smiles),measurement,setting,value
Cc1cccc(C)c1NC(=O)N1C/C=C\COc2cccc(c2)Nc2cc1ncn2 [Compound I-1],remaining activity at 0.1 µM,Src; [1],25%
same,remaining activity at 1 µM,Src; [2],24%
same,remaining activity at 0.1 µM,ERK2; [1],104%
same,remaining activity at 1 µM,ERK2; [2],80%
same,remaining activity at 0.1 µM,RIPK2; [1],33%
same,remaining activity at 1 µM,RIPK2; [2],5%
same,remaining activity at 0.1 µM,RSK1; [1],98%
same,remaining activity at 1 µM,RSK1; [2],99%
same,remaining activity at 0.1 µM,TTBK1; [1],115%
same,remaining activity at 1 µM,TTBK1; [2],80%
same,remaining activity at 0.1 µM,Aurora B; [1],89%
same,remaining activity at 1 µM,Aurora B; [2],78%
same,remaining activity at 0.1 µM,DAPK1; [1],99%
same,remaining activity at 1 µM,DAPK1; [2],85%
same,remaining activity at 0.1 µM,TTK; [1],99%
same,remaining activity at 1 µM,TTK; [2],79%
same,remaining activity at 0.1 µM,MAPKAP-K3; [1],108%
same,remaining activity at 1 µM,MAPKAP-K3; [2],89%
same,remaining activity at 0.1 µM,MSK1; [1],107%
same,remaining activity at 1 µM,MSK1; [2],81%
same,remaining activity at 0.1 µM,BRSK2; [1],110%
same,remaining activity at 1 µM,BRSK2; [2],78%
same,remaining activity at 0.1 µM,WNK1; [1],102%
same,remaining activity at 1 µM,WNK1; [2],85%
same,Activity of the protein kinase when treated with compound I-1 (% control),CK2; [1],97 % control
same,Activity of the protein kinase when treated with compound I-1 (% control),CK2; [2],91 % control
same,remaining activity at 0.1 µM,EPH-B1; [1],40%
same,remaining activity at 1 µM,EPH-B1; [2],43%
same,Activity of the protein kinase when treated with compound I-1 (% control),ROCK 2; [1],95 % control
same,Activity of the protein kinase when treated with compound I-1 (% control),ROCK 2; [2],91 % control
same,remaining activity at 0.1 µM,NUAK1; [1],100%
same,remaining activity at 1 µM,NUAK1; [2],93%
same,remaining activity at 0.1 µM,PIM1; [1],132%
same,remaining activity at 1 µM,PIM1; [2],93%
